In the supplement of paper PMC11061612:

What was measured:
Assay in all cases: Bliss excess, mean over the matrix (fraction); higher = more synergy
[1] = test system: AMO-1 (Plasma Cell Myeloma)
In short: (§1)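 After 24 hours at 37°C and 5% CO2 in 1536-well plates, cells in DMEM/F12 or RPMI plus 10% FBS received two-drug dose matrices for 72 hours. Viability came from CellTiter-Glo 2.0 luminescence and was scaled as inhibition, anchored at 0 by vehicle wells and at 1 by blank wells. Combination Emax is taken as the second-highest inhibition in the matrix, and Bliss excess as the observed combination effect less EA + EB − EA·EB, with EA and EB the single-agent effects.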

[2] = test system: Ca9-22 (Head and Neck Carcinoma)
In short: as §1

[3] = test system: Caov-4 (Ovarian Carcinoma)
In short: as §1

D-263MG (Glioblastoma) = test system: D-263MG (Glioblastoma)
In short: as §1

[4] = test system: EFM-19 (Breast Carcinoma)
In short: as §1

[5] = test system: HGC-27 (Gastric Carcinoma)
In short: as §1

[6] = test system: HOP-62 (Lung Adenocarcinoma)
In short: as §1

[7] = test system: Hs-766T (Pancreatic Carcinoma)
In short: as §1

NB69 (Neuroblastoma) = test system: NB69 (Neuroblastoma)
In short: as §1

[8] = test system: NCI-H1915 (Non-Small Cell Lung Carcinoma)
In short: as §1

[9] = test system: NCI-H358 (Lung Adenocarcinoma)
In short: as §1

[10] = test system: NCI-H727 (Other Solid Carcinomas)
In short: as §1

[11] = test system: NEC8 (Other Solid Carcinomas)
In short: as §1

[12] = test system: NUGC-3 (Gastric Carcinoma)
In short: as §1

[13] = test system: OSC-20 (Oral Cavity Carcinoma)
In short: as §1

[14] = test system: RF-48 (B-Cell Non-Hodgkin's Lymphoma)
In short: as §1

[15] = test system: SU8686 (Pancreatic Carcinoma)
In short: as §1

[16] = test system: SW13 (Other Solid Carcinomas)
In short: as §1

TGW (Neuroblastoma) = test system: TGW (Neuroblastoma)
In short: as §1

YH-13 (Glioblastoma) = test system: YH-13 (Glioblastoma)
In short: as §1

Question: For `COc1cccc2c1C(=O)c1c(O)c3c(c(O)c1C2=O)C[C@@](O)(C(=O)CO)C[C@@H]3O[C@H]1C[C@H](N)[C@H](O)[C@H](C)O1` [Doxorubicin] + Cc1cc2ncnn2cc1Nc1ncc2c(n1)n(C1CCOCC1)c(=O)n2C [AZD7648] (first compound max 1 µM, 7x7, partner max 10 µM), which Bliss excess [1] is on record?
Answer: Its Bliss excess is 0.0818.

Question: What about the Bliss excess [2] of the same compound?
Answer: Its Bliss excess is 0.0703.

Question: And the Bliss excess [3]?
Answer: The Bliss excess was 0.056.

Question: What about the Bliss excess (D-263MG (Glioblastoma)) of the same compound?
Answer: The Bliss excess was 0.032.

Question: What about the Bliss excess [4] of the same compound?
Answer: Its Bliss excess is 0.0055.

Question: What about the Bliss excess [5] of the same compound?
Answer: The Bliss excess was 0.0171.

Question: And the Bliss excess [6]?
Answer: The Bliss excess was 0.0399.

Question: And the Bliss excess [7]?
Answer: The Bliss excess was -0.012.

Question: And the Bliss excess (NB69 (Neuroblastoma))?
Answer: The Bliss excess was 0.0516.

Question: And the Bliss excess [8]?
Answer: The Bliss excess was 0.0154.

Question: And the Bliss excess [9]?
Answer: Its Bliss excess is 0.0186.

Question: And the Bliss excess [10]?
Answer: Its Bliss excess is -0.0417.

Question: And the Bliss excess [11]?
Answer: The Bliss excess was 0.0952.

Question: What about the Bliss excess [12] of the same compound?
Answer: Its Bliss excess is 0.0285.

Question: What about the Bliss excess [13] of the same compound?
Answer: Its Bliss excess is 0.0204.

Question: And the Bliss excess [14]?
Answer: Its Bliss excess is 0.021.

Question: And the Bliss excess [15]?
Answer: Its Bliss excess is -0.0262.

Question: And the Bliss excess [16]?
Answer: The Bliss excess was 0.0466.

Question: And the Bliss excess (TGW (Neuroblastoma))?
Answer: The Bliss excess was 0.0041.

Question: And the Bliss excess (YH-13 (Glioblastoma))?
Answer: The Bliss excess was 0.0443.
